Data published in patent US12203103B2, “Selection marker for cell transfection and protein production” (Sanofi, priority 2014, dated 2025).

How the values were obtained:
CHO 9E4 cells [1] = details: MSX 25 μM; 13C3; 960 wells tested; growing clones after 15 to 20 days
CHO 9E4 cells [2] = assay: Preliminary culture of CHO 9E4 cells with leflunomide; type: cell-based, Chinese hamster; details: leflunomide at 50 and 100 μM; preliminary experiments
Procedure: This obtained 27 wells with growing cells. Of these 27, 4 produced low but significant amount 13C3 antibody. However production was unstable and the efficiency was low below 0.1%. These experiments served as proof of principle that DHODH can be used as a selectable marker for recombinant protein production, so further experiments were performed.

CHO 9E4 cell line = assay: Selection of stably transfected CHO 9E4 cells with leflunomide or teriflunomide as selection agent; type: cell-based, Chinese hamster; details: for Antibody: Less than 10 μg/ml (number of wells) / Antibody: More than 10 μg/ml (number of wells) / % of Occupied / % of Producers / Occupied (number of wells): Teriflunomide 50 μM; for % of Occupied / % of Producers / Occupied (number of wells): 480 wells tested; for Occupied (number of wells): growing clones after 15 to 20 days
Excerpt: The CHO 9E4 cell line was transfected with two different plasmids bearing the cDNA encoding human DHODH cDNA and the genetic material for production of anti CD38 or 13C3 antibodies (vectors pBH4952 and pBH4967). As a control vector for selection, the plasmid bearing a cDNA encoding human GS cDNA instead of DHODH (pBH3695) was transfected using into CHO 9E4 cell lines. The genetic material was transfected using standard electroporation techniques.
Twenty four hours post transfection, the selection process was started. […] The control vector was equally transfected and submitted to the same selection process.
In each case, 480 wells were seeded with 2000 cells/well.

Structure (SMILES): CS(=N)(=O)CC[C@H](N)C(=O)O (stereo partly drawn) [MSX, L-methionine sulfoximine]
- Occupied (number of wells) (CHO 9E4 cells [1]): 46

Structure (SMILES): Cc1oncc1C(=O)Nc1ccc(C(F)(F)F)cc1 [leflunomide, 5-methyl-N-[4-(trifluoromethyl)phenyl]-isoxazole-4-carboxamide]
- effect on CHO 9E4 cell growth (CHO 9E4 cells [2]): did not kill the cells but inhibited growth
- antibody in supernatants of the 480 wells (CHO 9E4 cell line; leflunomide 50 and 100 μM): none of the supernatants showed detectable amount of antibodies
- wells displaying growing clones (CHO 9E4 cell line; leflunomide 50 and 100 μM, DHODH from human or hamster origin, after 20 days): all the wells were displaying growing clones

Structure (SMILES): C/C(O)=C(\C#N)C(=O)Nc1ccc(C(F)(F)F)cc1 [teriflunomide, (2Z)-2-cyano-3-hydroxy-N-[4-(trifluoromethyl)phenyl]but-2-enamide]
- Antibody: Less than 10 μg/ml (number of wells) (CHO 9E4 cell line; 13C3): 24
- Antibody: More than 10 μg/ml (number of wells) (CHO 9E4 cell line; 13C3): 14
- % of Occupied (CHO 9E4 cell line; 13C3): 8%
- % of Producers (CHO 9E4 cell line; 13C3): 3%
- Occupied (number of wells) (CHO 9E4 cell line; 13C3): 38
- Antibody: Less than 10 μg/ml (number of wells) (CHO 9E4 cell line; anti-CD38): 29
- Antibody: More than 10 μg/ml (number of wells) (CHO 9E4 cell line; anti-CD38): 19
- % of Occupied (CHO 9E4 cell line; anti-CD38): 10%
- % of Producers (CHO 9E4 cell line; anti-CD38): 4%
- Occupied (number of wells) (CHO 9E4 cell line; anti-CD38): 48
- growth of cells transfected with control vector (CHO 9E4 cell line; control vector pBH3695 (human GS), 50 and 100 μM teriflunomide, even after 25 days, 480 wells): no growth was observed in any of the wells
- wells with growing cells (CHO 9E4 cell line; teriflunomide-selected, human DHODH vectors pBH4967 and pBH4952, two weeks later): 8-10%
- growth of cells transfected with hamster DHODH vectors (CHO 9E4 cell line; teriflunomide-selected, vectors pBH4940 and pBH4939): no growth was observed in any of the wells
